According to ChEMBL document CHEMBL3046581, “Synthesis and cytotoxic activity of diaryl urea derivatives with a 4-methylpiperazinylcarbonyl moiety” (Med Chem Res, 2013):

What was measured:
[1] = tested on: PC-3; test: Cytotoxicity against Homo sapiens (human) PC3 cells assessed as growth inhibition at 100 uM after 48 hr by MTT assay; type: functional; conditions: PC-3, 48 h, read-out: GI
[2] = tested on: A549; test: Cytotoxicity against Homo sapiens (human) A549 cells assessed as growth inhibition at 100 uM after 48 hr by MTT assay; type: functional; conditions: A549, 48 h, read-out: GI
[3] = tested on: PC-3; test: Cytotoxicity against Homo sapiens (human) PC3 cells assessed as growth inhibition after 48 hr by MTT assay; type: functional
[4] = tested on: A549; test: Cytotoxicity against Homo sapiens (human) A549 cells assessed as growth inhibition after 48 hr by MTT assay; type: functional, cell-based; conditions: for IC50: Homo sapiens, A549, 48 h

| SMILES | inhibition of growth at 100 µM [1] | inhibition of growth at 100 µM [2] | growth inhibition (GI) [3] | growth inhibition (GI) [4] | IC50 [4] | growth inhibition (GI) ([4]; record 2) |
| --- | --- | --- | --- | --- | --- | --- |
| COc1cc(NC(=O)Nc2ccc(C(=O)N3CCN(C)CC3)cc2)cc(OC)c1 | 40% | 28.6% | – | – | – | – |
| CN1CCN(C(=O)c2ccc(NC(=O)Nc3ccc(Cl)c(C(F)(F)F)c3)cc2)CC1 | 25.5% | 22.6% | – | – | – | – |
| CN1CCN(C(=O)c2ccc(NC(=O)Nc3ccc(F)c(F)c3)cc2)CC1 | 27.6% | 43.1% | – | – | – | – |
| Cc1cc(NC(=O)Nc2ccc(C(=O)N3CCN(C)CC3)cc2)ccc1Cl | 35.1% | 27.5% | – | – | – | – |
| CNC(=O)c1cc(Oc2ccc(NC(=O)Nc3ccc(Cl)c(C(F)(F)F)c3)cc2)ccn1 [SORAFENIB] | – | – | 91.4% | Dose-dependent effect | 6.08 µM | 94.8% |
| C#Cc1cccc(NC(=O)Nc2ccc(C(=O)N3CCN(C)CC3)cc2)c1 | 49.3% | 45.4% | – | – | – | – |
| CN1CCN(C(=O)c2ccc(NC(=O)Nc3ccc(F)c(Cl)c3)cc2)CC1 | 29.9% | 28.4% | – | – | – | – |
| CN1CCN(C(=O)c2ccc(NC(=O)Nc3ccc(Cl)c(Cl)c3)cc2)CC1 | 28% | 36.5% | – | – | – | – |
| CC(=O)Nc1nc2ccc(NC(=O)Nc3ccc(C(=O)N4CCN(C)CC4)cc3)cc2s1 | – | 93.5% | – | Dose-dependent effect | 0.57 µM | – |
| CN1CCN(C(=O)c2ccc(NC(=O)Nc3cccc(C(=O)N4CCCCC4)c3)cc2)CC1 | 31.1% | 19.7% | – | – | – | – |
| CN1CCN(C(=O)c2ccc(NC(=O)Nc3ccc(OCc4cccc(F)c4)c(Cl)c3)cc2)CC1 | 82.7% | 74% | – | – | 10.8 µM | – |
| CN1CCN(C(=O)c2ccc(NC(=O)Nc3cccc(C(F)(F)F)c3)cc2)CC1 | 37.1% | 21.2% | – | – | – | – |
